Reference: patent US7148380B2, “Bio-energy muscle relaxants” (priority 2000, dated 2006)

Assays:
[1] = test system: drug-induced asthma in guinea pig; test: Asthmatic latent period / drug-induced asthma in guinea pig (acetylcholine + histamine inhalation); type: in vivo
Description: Sensitive animals were chosen by aerosolized inhalation of asthma-inducing agents—a mixed solution of 2% acetylcholine with 0.1% histamine for 15 sec., inducing an asthmatic attack with severe difficulty in respiration and finally resulting in the animal body turned down. The time from beginning of the inhalation to animal turned down was recorded as an index named “turned down time” or asthmatic latent period. Those animals with turned down time less than 120 s. were selected for the study next day. […] Then the latent period was recorded for each of the animals.
(1) Screening animals: animal was put in a glass container, a mixed solution of 2% acetylcholine and 0.1% histamine was nebulized with a pressure of 400 mmHg and inhaled by the animals for 15 sec. Following the end of the inhalation, the time between beginning of the inhalation and the animal turned down due to bronchial spasm and dyspnea was recorded as asthmatic latent period. Those animals with a latent period beyond 120 s. were excluded, and those with a latent period less than 120 s were selected for study the next day.
(4) Measuring: Repeat the inhalation at 30 min, 4 h, and 24 h after administration of the drugs respectively. Asthmatic latent period was recorded, 6 minutes were taken as the maximum, and values beyond 6 min were counted as 6 min.
(5) Data analysis: Values were expressed as mean±sd, and paired for “t” and chi-square tests. Significance was considered to be established when p<0.05.

[2] = test system: contraction of bronchial smooth muscle induced by histamine; test: By-pass-airflow pressure, bronchial smooth muscle contraction induced by histamine; type: in vivo, guinea pig
Description: The animals were divided as saline, BDM, and aminophylline groups. Each animal was anesthetized with pentobarbital (30 mg/kg, I.P.), the trachea was intubated and connected to respirator. Tidal volume and frequency of the respirator were adjusted to 6˜10 ml and 60˜70 breath/min. respectively.
A small hole on chest wall of the animal was made, resulting in pneumothorax to inhibit spontaneous respiration of the animal. A modified device was used for measuring by-pass-airflow pressure of the airway, reflecting alteration in airway resistance, therefore evaluating status of bronchial smooth muscle contraction induced by histamine. The by-pass-airflow pressures were measured before and at 10, 20, 30, 40, 50, and 60 min after administration of histamine (5˜10 μg, I.P.) as control values. […] Changes in by-pass-airflow pressure caused by histamine before and after saline, BDM, or aminophylline were compared.
A percentage of changes in the airflow pressures before and after administration of the histamine at different time points, defined as the change rate, was calculated according to formula 1 below: Change rate (%)=(PA−PB)/PB×100% (1)
where PA is the airflow pressure after histamine, PB is the pressure before histamine. Values were expressed as mean±SD, paired or group “t” test was used upon the requirement for the statistical analysis. The results were considered significant when p<0.05.

[3] = 10 ml/kg I.P. (BDM 0.2M, aminophylline 1.25%), mean±sd
[4] = after drug 10 ml/kg I.P., 10 min after histamine
[5] = after drug 10 ml/kg I.P., 20 min after histamine
[6] = after drug 10 ml/kg I.P., 30 min after histamine
[7] = after drug 10 ml/kg I.P., 40 min after histamine
[8] = after drug 10 ml/kg I.P., 50 min after histamine
[9] = after drug 10 ml/kg I.P., 60 min after histamine
[10] = before drug administration, 10 min after histamine
[11] = before drug administration, 20 min after histamine
[12] = before drug administration, 30 min after histamine
[13] = before drug administration, 40 min after histamine
[14] = before drug administration, 50 min after histamine
[15] = before drug administration, 60 min after histamine

In the case of `Cn1c(=O)c2[nH]cnc2n(C)c1=O` [Aminophylline, aminophylline, reference compound], the “Asthamatic Latent Period, 30 minutes after administration” value ([1]; 10 ml/kg I.P. (BDM 0.2M, aminophylline 1.25%), maximum 6 min, mean±sd) is reported as 298.2 ± 138.2 s, the “Asthamatic Latent Period, 4 hours after administration” value [1, 3] is reported as 216.6 ± 112.5 s and the “Asthamatic Latent Period, 24 hours after administration” value [1, 3] is reported as 96 ± 26.9 s. For the same molecule, the “Incidence of asthmatic spasm” value ([1]; 30 min after administration, down from 100%, not significant) was 40%, the “Asthamatic Latent Period, before administration” value ([1]; baseline before drug, 10 ml/kg I.P. (BDM 0.2M, aminophylline 1.25%), mean±sd) was 70.6 ± 27.7 s and the “Effect on the latent period” value ([1]; thirty minutes and 4 h after administration, p<0.05) was “significantly extended”. The “by-pass-airflow pressure, A, B. Hist” value ([2]; after drug 10 ml/kg I.P. (BDM 0.2M, aminophylline 1.25%), before histamine) was 4.24 ± 1.18 Kpa, the “by-pass-airflow pressure, A, Hist 10 min.” value [2, 4] was 4.36 ± 1.10 Kpa and the “changing rate of by-pass-airflow pressure, A, Hist 10 min.” value [2, 4] was −7.68%. For the same molecule, the “by-pass-airflow pressure, A, Hist 20 min.” value [2, 5] was 4.18 ± 0.86 Kpa, the “changing rate of by-pass-airflow pressure, A, Hist 20 min.” value [2, 5] was −10.62% and the “by-pass-airflow pressure, A, Hist 30 min.” value [2, 6] was 4.20 ± 0.92 Kpa. The “changing rate of by-pass-airflow pressure, A, Hist 30 min.” value [2, 6] was −10.40%, the “by-pass-airflow pressure, A, Hist 40 min.” value [2, 7] was 4.15 ± 0.88 Kpa and the “changing rate of by-pass-airflow pressure, A, Hist 40 min.” value [2, 7] was −11.38%. For the same molecule, the “by-pass-airflow pressure, A, Hist 50 min.” value [2, 8] was 4.10 ± 0.92 Kpa, the “changing rate of by-pass-airflow pressure, A, Hist 50 min.” value [2, 8] was −12.73% and the “by-pass-airflow pressure, A, Hist 60 min.” value [2, 9] was 4.02 ± 0.92 Kpa. The “changing rate of by-pass-airflow pressure, A, Hist 60 min.” value [2, 9] was −14.25%, the “histamine-induced increase in the airflow pressure” value ([2]; at 10, 20, 30, 40, 50, and 60 min after administration, p<0.01 or p<0.05) was “significantly reduce” and the “by-pass-airflow pressure, B, Hist 10 min.” value [2, 10] was 4.51 ± 0.65 Kpa. The “changing rate of by-pass-airflow pressure, B, Hist 10 min.” value [2, 10] was 8.37%, the “by-pass-airflow pressure, B, Hist 20 min.” value [2, 11] was 4.34 ± 0.73 Kpa and the “changing rate of by-pass-airflow pressure, B, Hist 20 min.” value [2, 11] was 3.93%. The “by-pass-airflow pressure, B, Hist 30 min.” value [2, 12] was 4.40 ± 0.79 Kpa, the “changing rate of by-pass-airflow pressure, B, Hist 30 min.” value [2, 12] was 5.31% and the “by-pass-airflow pressure, B, Hist 40 min.” value [2, 13] was 4.42 ± 0.80 Kpa. The “changing rate of by-pass-airflow pressure, B, Hist 40 min.” value [2, 13] was 5.80%, the “by-pass-airflow pressure, B, Hist 50 min.” value [2, 14] was 4.42 ± 0.86 Kpa and the “changing rate of by-pass-airflow pressure, B, Hist 50 min.” value [2, 14] was 5.63%. The “by-pass-airflow pressure, B, Hist 60 min.” value [2, 15] was 4.46 ± 0.87 Kpa, the “changing rate of by-pass-airflow pressure, B, Hist 60 min.” value [2, 15] was 6.54% and the “by-pass-airflow pressure, B, B. Hist” value ([2]; before drug administration, before histamine) was 4.18 ± 0.72 Kpa. The “changing rate of by-pass-airflow pressure, D, Hist 10 min.” value ([2]; difference A minus B, 10 min after histamine) was −16.05%, the “changing rate of by-pass-airflow pressure, D, Hist 20 min.” value ([2]; difference A minus B, 20 min after histamine) was −14.55% and the “changing rate of by-pass-airflow pressure, D, Hist 30 min.” value ([2]; difference A minus B, 30 min after histamine) was −15.71%. The “changing rate of by-pass-airflow pressure, D, Hist 40 min.” value ([2]; difference A minus B, 40 min after histamine) was −17.19%, the “changing rate of by-pass-airflow pressure, D, Hist 50 min.” value ([2]; difference A minus B, 50 min after histamine) was −18.36% and the “changing rate of by-pass-airflow pressure, D, Hist 60 min.” value ([2]; difference A minus B, 60 min after histamine) was −20.79%.
